Assay results published in patent US20260092054A1, “FUSED RING COMPOUND AND PHARMACEUTICAL CONTAINING SAME” (KAKEN PHARMACEUTICAL CO., LTD., priority 2022, published 2026).

Legend:
human STAT6 = experiment: Human STAT6 dependent reporter activity (IL-4 stimulated STAT6 reporter assay using STAT6-HEK293 cells); type: cell-based; conditions: Homo sapiens, IL-4 stimulation, luciferase activity, read-out: Inhibition rate (%); for inhibition at 0.1 µM: compound 0.1 μmol/L; for inhibition at 1 µM: compound 1 μmol/L
Experimental: Test Example 2: Measurement of Human STAT6 Dependent Reporter Activity
1) Construction of Human STAT6-HEK293 Cells
HEK 293 cells maintenance cultured by [Penicillin-Streptomycin (Thermo Fisher Scientific) and FBS, 1 vol % and 10 vol % respectively added to DMEM high glucose (Thermo Fisher Scientific)](manufactured by ATCC) were collected, and suspended in 10 mL of 0.5% BSA/PBS. 1×10^6 cells were collected, the supernatant was removed by centrifuging, and the cells were suspended in 100 μL of Nucleofector solution V (manufactured by Lonza K.K.). 2 μg of STAT6 vector [plasmid DNAs incorporating human STAT6 sequences in pcDNA3.1 (Invitrogen)] was added, and the STAT6 vector was introduced into the HEK293 cells using the program Q-001 initially registered in the Nucleofector®2b. A cell line (STAT6-HEK293 cells) consistently expressing STAT6 was acquired by selecting resistant cells in a medium containing Geneticin® (manufactured by Thermo Fisher Scientific). 2) STAT6 reporter assay using STAT6-HEK293 cells 3×10^6 STAT6-HEK293 cells maintained in assay medium [culture medium supplemented with 1 vol % Geneticin®] were harvested and seeded in a 10 cm dish. 3 μg of a STAT6 reporter vector [plasmid in which a sequence containing a STAT6 binding sequence and a C/EBP binding sequence in tandem was incorporated into pGL4.27 (manufactured by Promega Corporation)] and 9 μL of FuGENE® HD transfection reagent (manufactured by Promega Corporation) were added to 500 μL of Opti-MEM® (manufactured by Thermo Fisher Scientific) to prepare transfection solutions. The transfection solution was vortexed and left to stand for about 5 minutes, then added dropwise to the STAT6-HEK293 cells, which were then cultured overnight in a C02 incubator to produce STAT6 reporter cells.
The prepared STAT6 reporter cells were seeded on B&W isoplate-96 TC (PerkinElmer Japan Co., Ltd.) (3×10^4 cells/50 μL/well) and cultured overnight in a C02 incubator (37° C., 5% C02). 50 μL of assay medium was added to each well instead of the STAT6 reporter cells. The compound addition solution was prepared by diluting the DMSO solution of the example compound 250-fold using the assay medium. 20 μL of compound addition solution or 0.4 vol % DMSO-containing assay medium was added to the plate, and the plate was then cultured in a CO2 incubator for 1 hour. 10 μL of 80 ng/mL human IL-4 solution (Peprotech) or assay medium was added to each well, and the cells were cultured in a CO2 incubator for 6 hours.
STAT6 reporter activity was measured using the Bright-Glo® Luciferase Assay System (Promega). 100 μL of Bright-Glo® reagent was added to each well, and luciferase activity was measured using Infinite® F500. The inhibition rate of each Example compound was calculated by the following formula using the luciferase activity value (G) when no Example compound was added and stimulation with IL-4 was performed, the luciferase activity value (H) when no Example compound was added and stimulation with IL-4 was not performed, and the luciferase activity value (I) when each Example compound was treated and stimulation with IL-4 was performed.
Note that the viable cell rate under each condition was 70% or more, and it was determined that the luciferase activity inhibitory activity of each example compound was appropriately evaluated.

human STAT6/pIL-4Rα = biological target: T1, human STAT6/pIL-4Rα (Homo sapiens, UniProt P42226); experiment: Binding inhibitory activity between human STAT6/pIL-4Rα by fluorescence polarization method; conditions: rhSTAT6 (123-658) / FAM-pIL-4Rα peptide
T1 construct: histidine tag
T1 sequence (P42226 123-658): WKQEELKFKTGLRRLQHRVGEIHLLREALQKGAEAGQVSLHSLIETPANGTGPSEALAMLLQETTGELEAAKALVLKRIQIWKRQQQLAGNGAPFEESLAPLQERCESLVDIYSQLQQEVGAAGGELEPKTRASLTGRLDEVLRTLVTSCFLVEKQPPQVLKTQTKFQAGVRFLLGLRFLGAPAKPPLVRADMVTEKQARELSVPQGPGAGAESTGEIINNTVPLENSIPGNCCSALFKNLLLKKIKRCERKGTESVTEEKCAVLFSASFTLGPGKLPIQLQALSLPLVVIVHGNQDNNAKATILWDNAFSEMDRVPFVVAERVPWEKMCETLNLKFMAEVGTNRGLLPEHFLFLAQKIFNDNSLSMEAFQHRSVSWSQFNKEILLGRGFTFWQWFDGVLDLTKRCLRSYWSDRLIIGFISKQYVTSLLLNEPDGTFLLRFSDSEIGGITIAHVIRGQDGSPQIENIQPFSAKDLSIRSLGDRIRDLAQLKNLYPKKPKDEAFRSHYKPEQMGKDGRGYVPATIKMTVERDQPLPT
Experimental: Test Example 1: Measurement of Binding Inhibitory Activity Between Human STAT6/pIL-p 4Rα by Fluorescence Polarization Method
1) Construction of Histidine Tag-Fused Recombinant Human STAT6 (123 to 658 Region)
A histidine tag-fused recombinant human STAT6 (hereinafter referred to as rhSTAT6) expression vector [plasmid DNA in which a nucleic acid sequence containing human STAT6 (123-658 region) was inserted into a pET28a(+) vector (Novagen)] was inserted into E. coli, and the cells were cultured overnight under culturing conditions at 17° C. with IPTG treatment. After disrupting E. coli with a high-pressure homogenizer (EmulsiFlex-C3, manufactured by AVESTIN, Inc.), affinity purification using Ni-NTA agarose (manufactured by Qiagen), cation exchange chromatography using HiTrap® CM-FF (manufactured by GE healthcare), and gel filtration chromatography using Superdex® 200 10/300GL (manufactured by GE healthcare) were performed to obtain rhSTAT6.
2) Measurement of Binding Inhibitory Activity Between Human STAT6/pIL-4Rα by Fluorescence Polarization Method
A DMSO solution of the example compound was diluted with an assay buffer [for example, a buffer containing 50 mmol/L NaCl, 10 mmol/L HEPES (pH 7.0), 1 mmol/L DTT, 1 mmol/L EDTA, and 0.01 vol % NP-40, and the like] to prepare a compound-added solution. The DMSO concentration in the compound addition solution was adjusted to 1 or 2 vol %. 10 μL of the compound addition solution and an assay buffer containing 1 or 2 vol % DMSO were added to each well of a 384-well plate. 5 μL of an assay buffer solution containing rhSTAT6 (rhSTAT6 concentration: for example, 1 μmol/L) or an assay buffer was added to each well of a 384-well plate. After leaving the plate at room temperature for 30 minutes in the dark, 5 μL of an assay buffer solution (FAM-pIL-4Rp concentration: for example, 80 nmol/L) containing FAM-labeled phosphorylated IL-4Rα peptide (sequence: FAM-Ala-pTyr-Lys-Pro-Phe-Gln-Asp-Leu-IIe-NH2) (hereinafter, FAM-pIL-4Rp) or an assay buffer containing 2 vol % DMSO was added to each well of the 384-well plate. The mixture was left to stand at room temperature for 30 minutes in the dark, and then centrifuged (200 g, 1 minute, room temperature). Fluorescence polarization values were measured using Infinite (registered trademark) F500 (manufactured by Tecan Japan Co., Ltd.) (Excitation: 485 nm, Emission: 535 nm). The inhibition rate of each Example compound was calculated according to the following formula using the fluorescence polarization value (A) when rhSTAT6 and FAM-pIL-4Rp were added without adding the Example compound, the fluorescence polarization value (B) when FAM-pIL-4Rp was added without adding the Example compound and rhSTAT6, and the fluorescence polarization value (C) when each Example compound, rhSTAT6, and FAM-pIL-4Rp were added.
In the evaluation of each example compound, the 50% inhibitory concentration (IC50) of each example compound was calculated from a linear function equation of a straight line connecting two points sandwiching 50%.

SMILES	IC50 (human STAT6/pIL-4Rα) [nM]	inhibition at 0.1 µM (human STAT6) [%]	inhibition at 1 µM (human STAT6) [%]
CCn1c(-c2ccc(N3CCCC3=O)cc2)nc2cc(Br)cc(C(=O)Nc3cccc(C(N)=O)c3)c21 [Ex. 4]	740	12	64
CCn1c(-c2ccc(-n3cccn3)cc2)nc2cc(Br)cc(C(=O)Nc3cccc(C(N)=O)c3)c21 [Ex. 5]	660	8	63
CCn1c(-c2ccc(-n3nccn3)cc2)nc2cc(Br)cc(C(=O)Nc3cccc(C(N)=O)c3)c21 [Ex. 6]	1140	-1	52
CCn1c(-c2ccc3c(c2)CCN3C(C)=O)nc2cc(Br)cc(C(=O)Nc3cccc(C(N)=O)c3)c21 [Ex. 8]	410	2	43
CCn1c(-c2ccc(-n3cnn(C)c3=O)cc2)cc2cc(Br)cc(C(=O)Nc3ccc(F)c(C(N)=O)c3)c21 [Ex. 9]	450	10	76
CCn1c(-c2ccc(-n3c(C)nn(C)c3=O)cn2)cc2cc(C(F)(F)F)cc(C(=O)Nc3cccc(C(N)=O)c3F)c21 [Ex. 19]	360	42	98
CCn1c(-c2ccc(-n3c(C)nn(C)c3=O)cc2)cc2ccnc(C(=O)Nc3cccc(C(N)=O)c3F)c21 [Ex. 22]	320	89	99
Cc1nn(C)c(=O)n1-c1ccc(-c2cc3ccnc(C(=O)Nc4ccc(F)c(C(N)=O)c4)c3n2CC2CC2)cc1 [Ex. 24]	320	54	98
CCn1c(-c2ccc(-n3cnn(C)c3=O)cc2)cc2ccnc(C(=O)Nc3ccc(F)c(C(N)=O)c3)c21 [Ex. 25]	280	64	97
COCCn1c(-c2ccc(-n3c(C)nn(C)c3=O)cc2)cc2ccnc(C(=O)Nc3cccc(C(N)=O)c3F)c21 [Ex. 26]	390	63	98
COCCn1c(-c2ccc(-n3c(C)nn(C)c3=O)cc2)cc2ccnc(C(=O)Nc3ccc(F)c(C(N)=O)c3)c21 [Ex. 27]	350	52	96
CCn1c(-c2ccc(N3CCOCC3=O)cc2)cc2cc(C(F)(F)F)cc(C(=O)Nc3ccc(F)c(C(N)=O)c3)c21 [Ex. 31]	460	80	97
COCCn1c(-c2ccc(-n3c(C)nn(C)c3=O)cc2)cc2cc(C(F)(F)F)cc(C(=O)Nc3cccc(C(N)=O)c3F)c21 [Ex. 33]	100	75	100
Cc1nn(C)c(=O)n1-c1ccc(-c2cc3cccc(C(=O)Nc4ccc(F)c(C(N)=O)c4)c3n2CC2CC2)cc1 [Ex. 34]	610	39	96

The next lines start with results.

IC50 (human STAT6/pIL-4Rα) [nM]	SMILES	inhibition at 0.1 µM (human STAT6) [%]	inhibition at 1 µM (human STAT6) [%]
250	CCn1c(-c2ccc(-n3c(C)nn(C)c3=O)cc2)cc2cc(C(F)(F)F)cc(C(=O)Nc3cccc(C(N)=O)c3F)c21 [Ex. 15]	97	100
240	COCCn1c(-c2ccc(-n3c(C)nn(C)c3=O)cc2)cc2cc(C(F)(F)F)cc(C(=O)Nc3ccc(F)c(C(N)=O)c3)c21 [Ex. 16]	72	100
350	CCn1c(-c2ccc(-n3c(C)nn(C)c3=O)cc2)cc2cccc(C(=O)Nc3ccc(F)c(C(N)=O)c3)c21 [Ex. 17]	81	99
350	CCn1c(-c2ccc(-n3c(C)nn(C)c3=O)cc2)cc2cc(F)cc(C(=O)Nc3ccc(F)c(C(N)=O)c3)c21 [Ex. 18]	80	99
660	CCn1c(-c2ccc(-n3c(C)nn(C)c3=O)nc2)cc2cc(C(F)(F)F)cc(C(=O)Nc3ccc(F)c(C(N)=O)c3)c21 [Ex. 20]	50	98
380	CCn1c(-c2ccc(-n3c(C)nn(C)c3=O)cc2)cc2ccnc(C(=O)Nc3ccc(F)c(C(N)=O)c3)c21 [Ex. 21]	73	98
240	CCn1c(-c2ccc(-n3c(C)nn(C)c3=O)cc2)cc2cc(C(F)(F)F)nc(C(=O)Nc3ccc(F)c(C(N)=O)c3)c21 [Ex. 23]	86	100
270	CCn1c(-c2ccc(-n3c(C)nn(C)c3=O)cc2)cc2c(C(F)(F)F)ccc(C(=O)Nc3ccc(F)c(C(N)=O)c3)c21 [Ex. 30]	76	100
420	CCn1c(-c2ccc(-n3c(C)nn(C)c3=O)cc2)cc2cc(C)cc(C(=O)Nc3ccc(F)c(C(N)=O)c3)c21 [Ex. 32]	91	100
